Structures are written as SMILES. Counter-ions that a name gives are not always drawn. Like-named read-outs stand apart in the source and are kept apart here.

The test system of this assay is HTT. Kind of assay: Splicing assay (RT-qPCR on cell lysates) monitoring HTT splice variants: AJ and CJ mRNA. Type of assay: cell-based. Particulars: concentration having 50% response. Here is the method:
Example 69: Exemplary Splicing Assay for Monitoring Expression Levels of Splice Variants
To set up 10 uL RT-qPCR reactions, cell lysates were transferred to 384-well qPCR plates containing the master mix according to the table below. The plates were sealed, gently vortexed, and spun down before the run. The volumes were adjusted accordingly in some instances where the reaction was carried in 20 uL. The table below summarizes the components of the RT-qPCR reactions:
The RT-qPCR reaction was performed using a QuantStudio (ThermoFisher) under the following fast cycling conditions. All samples and standards were analyzed at least in duplicate. In some instances, bulk room temperature (RT) step of 5-10 minutes was completed for all plates before proceeding with qPCR. The table below summarizes the PCR cycle:
The data analysis was performed by first determining the ΔCt vs the housekeeper gene. This ΔCt was then normalized against the DMSO control (ΔΔCt) and converted to RQ (relative quantification) using the 2^(−ΔΔCt) equation. The RQ were then converted to a percentage response by arbitrarily setting an assay window of 3.5 ΔCt for HTT-CJ and an assay window of 9 ΔCt for HTT-AJ. […] The percentage response was then fitted to the 4 parametric logistic equation to evaluate the concentration dependence of compound treatment. The increase in AJ mRNA is reported as AC50 (compound concentration having 50% response in AJ increase) while the decrease in CJ mRNA levels is reported as IC50 (compound concentration having 50% response in CJ decrease).
On the technique in general: In qPCR the cycle at which signal appears reflects the starting amount.

The mark [1] stands for this setting: Table 7, decrease in CJ mRNA, read-out: HTT CJ AC50.
Where [2] appears, read: Table 7, increase in AJ mRNA, read-out: HTT AJ AC50.
The mark [3] stands for this setting: Table 8, decrease in CJ mRNA, read-out: HTT CJ AC50.
The mark [4] stands for this setting: Table 8, increase in AJ mRNA, read-out: HTT AJ AC50.

What is called AC50 is the concentration at which the activity in the assay is half-maximal. For `CN(c1ccc(-c2ccc(-c3cn[nH]c3)c3ncsc23)nn1)C1CC(C)(C)NC(C)(C)C1` [Compound 132, N-methyl-6-[4-(1H-pyrazol-4-yl)-1,3-benzothiazol-7-yl]-N-(2,2,6,6-tetramethylpiperidin-4-yl)pyridazin-3-amine], the AC50 is, setting by setting: under setting [1], less than 0.5 µM; under setting [2], less than 0.5 µM. `CN(c1ccc(-c2ccc(-c3cn[nH]c3)c3cn[nH]c23)nn1)C1CC(C)(C)NC(C)(C)C1` [Compound 137, N-methyl-6-[4-(1H-pyrazol-4-yl)-1H-indazol-7-yl]-N-(2,2,6,6-tetramethylpiperidin-4-yl)pyridazin-3-amine]: the AC50 by setting is: under setting [1], 0.5 to 5 µM; under setting [2], 0.5 to 5 µM.

Turning to `CC1(C)CC(Oc2ccc(-c3ccc(-c4cn[nH]c4)c4cn[nH]c34)nn2)CC(C)(C)N1` [Compound 138, 4-(1H-pyrazol-4-yl)-7-[6-[(2,2,6,6-tetramethylpiperidin-4-yl)oxy]pyridazin-3-yl]-1H-indazole], the AC50 is less than 0.5 µM under setting [1] and 0.5 to 5 µM under setting [2]. Take `CN(c1ccc(-c2ccc(-c3c[nH]nn3)c3cn[nH]c23)nn1)[C@@H]1C[C@H]2CC[C@@H](C1)N2` [Compound 141]: the AC50 under setting [1] is less than 0.5 µM and the AC50 under setting [2] was less than 0.5 µM. Turning to `c1n[nH]cc1-c1ccc(-c2ccc(O[C@@H]3C[C@H]4CC[C@@H](C3)N4)nn2)c2[nH]ncc12` [Compound 142, 7-[6-[(1R,3S,5S)-8-azabicyclo[3.2.1]octan-3-yloxy]pyridazin-3-yl]-4-(1H-pyrazol-4-yl)-1H-indazole], the AC50 is, setting by setting: under setting [1], less than 0.5 µM; under setting [2], 0.5 to 5 µM. On to `CN(c1ccc(-c2ccc(-c3cnn(C)c3)c3cn[nH]c23)nn1)[C@@H]1C[C@H]2CC[C@@H](C1)N2` [Compound 143], for which the AC50 under setting [1] is less than 0.5 µM and the AC50 under setting [2] lay in the range of 0.5 to 5 µM.

Regarding `CN(c1ccc(-c2ccc(-c3cn[nH]c3)c3cn[nH]c23)nn1)[C@H]1C[C@]2(C)CC[C@](C)(C1)N2` [Compound 146, N,1,5-trimethyl-N-[6-[4-(1H-pyrazol-4-yl)-1H-indazol-7-yl]pyridazin-3-yl]-8-azabicyclo[3.2.1]octan-3-amine], the AC50 reads like this: under setting [1], less than 0.5 µM; under setting [2], less than 0.5 µM.

Turning to `CN(c1cnc(-c2cc(F)c(-c3cn[nH]c3)c3cn[nH]c23)nn1)[C@@H]1C[C@H]2CC[C@@H](C1)N2` [Compound 149], the AC50 was less than 0.5 µM under setting [1] and less than 0.5 µM under setting [2].

Take `CN(c1ccc(-c2ccc(-n3cccn3)c3cn[nH]c23)nn1)C1CC(C)(C)NC(C)(C)C1` [Compound 150, N-methyl-6-[4-(pyrazol-1-yl)-1H-indazol-7-yl]-N-(2,2,6,6-tetramethylpiperidin-4-yl)pyridazin-3-amine]: the AC50 was in the range of 0.5 to 5 µM under setting [1] and 0.5 to 5 µM under setting [2]. For `C[C@H]1C[C@H](N(C)c2ccc(-c3ccc(-c4cn[nH]c4)c4cc[nH]c34)nn2)CCN1` [Compound 157], under setting [2], the AC50 is more than 5 µM. Take `C[C@H]1C[C@H](N(C)c2ccc(-c3ccc(-n4cccn4)c4cc[nH]c34)nn2)CCN1` [Compound 158]: the AC50 was more than 5 µM under setting [1] and more than 5 µM under setting [2]. Consider `C[C@H]1C[C@@H](N(C)c2ccc(-c3ccc(-n4cccn4)c4cn[nH]c34)nn2)CCN1` [Compound 159], for which the AC50 reads like this: under setting [1], more than 5 µM; under setting [2], more than 5 µM. Take `C[C@H]1C[C@@H](N(C)c2ccc(-c3ccc(-c4cn[nH]c4)c4cn[nH]c34)nn2)CCN1` [Compound 160]: the AC50 by setting is: under setting [1], more than 5 µM; under setting [2], more than 5 µM. For the molecule `[2H]C([2H])([2H])N(c1ccc(-c2ccc(-c3cn[nH]c3)c3ncsc23)nn1)C1CC(C)(C)NC(C)(C)C1` [Compound 231, N-(2H3)methyl-6-[4-(1H-pyrazol-4-yl)-1,3-benzothiazol-7-yl]-N-(2,2,6,6-tetramethylpiperidin-4-yl)pyridazin-3-amine], the AC50 runs as follows: under setting [3], 0.1 to 1 µM; under setting [4], 0.1 to 1 µM. `COc1cc(-c2ccc(-c3ccc(N(C)C4CC(C)(C)NC(C)(C)C4)nn3)c3ncsc23)cnn1` [Compound 233]: the half-maximal activity concentration (AC50) under setting [3] fell in the range of 0.1 to 1 µM and the AC50 under setting [4] is 0.1 to 1 µM. Regarding `CN(c1ccc(-c2ccc(-c3cnnc(O)c3)c3scnc23)nn1)C1CC(C)(C)NC(C)(C)C1` [Compound 234], the AC50 under setting [3] is more than 10 µM and the AC50 under setting [4] is more than 10 µM. With `CN1C[C@@H]2[C@H](C1)[C@H]2N(C)c1ccc(-c2ccc(-c3cn[nH]c3)c3ncsc23)nn1` [Compound 235, (exo)-N,3-dimethyl-N-{6-[4-(1H-pyrazol-4-yl)-1,3-benzothiazol-7-yl]pyridazin-3-yl}-3-azabicyclo[3.1.0]hexan-6-amine hydrochloride], the AC50 under setting [3] is more than 10 µM and the AC50 under setting [4] was more than 10 µM. In the case of `c1n[nH]cc1-c1ccc(-c2ccc(NC3CNC3)nn2)c2[nH]ncc12` [Compound 237], the half-maximal activity concentration (AC50) is more than 10 µM under setting [3] and more than 10 µM under setting [4]. As to `c1n[nH]cc1-c1ccc(-c2ccc(N3CCC4(CC3)CNC4)nn2)c2[nH]ncc12` [Compound 238], the AC50 reads like this: under setting [3], more than 10 µM; under setting [4], more than 10 µM. With `c1n[nH]cc1-c1ccc(-c2ccc(N3CCC4(CCNCC4)C3)nn2)c2[nH]ncc12` [Compound 239], the half-maximal activity concentration (AC50) by setting is: under setting [3], more than 10 µM; under setting [4], more than 10 µM. Turning to `c1n[nH]cc1-c1ccc(-c2ccc(N3CCC4(CCNC4)CC3)nn2)c2[nH]ncc12` [Compound 240], the AC50 by setting is: under setting [3], more than 10 µM; under setting [4], more than 10 µM. On to `c1n[nH]cc1-c1ccc(-c2ccc(N3CCNCC3)nn2)c2[nH]ncc12` [Compound 241], for which the AC50 reads like this: under setting [3], more than 10 µM; under setting [4], 1 to 10 µM.

As for `CN(c1ccc(-c2ccc(-c3cnn(C)c3)c3cn[nH]c23)nn1)C1CCNCC1` [Compound 242, N-methyl-6-[4-(1-methylpyrazol-4-yl)-1H-indazol-7-yl]-N-(piperidin-4-yl)pyridazin-3-amine;trifluoroacetic acid], the half-maximal activity concentration (AC50) under setting [3] is more than 10 µM and the AC50 under setting [4] is more than 10 µM. Turning to `CN(c1ccc(-c2ccc(-c3cnn(C)c3)c3cn[nH]c23)nn1)C1CC(C)(C)NC(C)(C)C1` [Compound 243, N-methyl-6-[4-(1-methylpyrazol-4-yl)-1H-indazol-7-yl]-N-(2,2,6,6-tetramethylpiperidin-4-yl)pyridazin-3-amine; trifluoroacetic acid], the AC50 runs as follows: under setting [3], 1 to 10 µM; under setting [4], 1 to 10 µM. On to `c1n[nH]cc1-c1ccc(-c2ccc(N3CCCC4(CNC4)C3)nn2)c2[nH]ncc12` [Compound 251], for which the AC50 is more than 10 µM under setting [3] and more than 10 µM under setting [4].

As for `c1n[nH]cc1-c1ccc(-c2ccc(N3CCC4(CCCNC4)C3)nn2)c2[nH]ncc12` (stereo not shown) [Compound 252], the AC50 is more than 10 µM under setting [3] and more than 10 µM under setting [4]. In the case of `c1n[nH]cc1-c1ccc(-c2ccc(N3CCCC4(CCNC4)C3)nn2)c2[nH]ncc12` (stereo not shown) [Compound 253], the AC50 reads like this: under setting [3], more than 10 µM; under setting [4], more than 10 µM. With `c1n[nH]cc1-c1ccc(-c2ccc(N3C[C@H]4CNC[C@H]4C3)nn2)c2[nH]ncc12` [Compound 254], the AC50 by setting is: under setting [3], more than 10 µM; under setting [4], more than 10 µM.

As to `CN1C[C@@H]2CN(c3ccc(-c4ccc(-c5cn[nH]c5)c5cn[nH]c45)nn3)C[C@@H]2C1` [Compound 255], the AC50 reads like this: under setting [3], more than 10 µM; under setting [4], more than 10 µM. Turning to `c1n[nH]cc1-c1ccc(-c2ccc(NC3CCNCC3)nn2)c2[nH]ncc12` [Compound 263, N-(piperidin-4-yl)-6-[4-(1H-pyrazol-4-yl)-1H-indazol-7-yl]pyridazin-3-amine hydrogen chloride], the AC50 under setting [3] was more than 10 µM and the AC50 under setting [4] was more than 10 µM. Turning to `CN(c1ccc(-c2ccc(-n3cccn3)c3cn[nH]c23)nn1)C1CCNCC1` [Compound 264], the AC50 under setting [3] is more than 10 µM and the AC50 under setting [4] was more than 10 µM. For the molecule `c1nc2c(-c3cn[nH]c3)ccc(-c3ccc(N4CCC5(CCN5)C4)nn3)c2s1` (stereo not shown) [Compound 265, 7-(6-{1,6-diazaspiro[3.4]octan-6-yl}pyridazin-3-yl)-4-(1H-pyrazol-4-yl)-1,3-benzothiazole], the AC50 reads like this: under setting [3], more than 10 µM; under setting [4], more than 10 µM.

Take `c1nc2c(-c3cn[nH]c3)ccc(-c3ccc(N4CCC45CCNCC5)nn3)c2s1` [Compound 266]: the AC50 reads like this: under setting [3], 1 to 10 µM; under setting [4], more than 10 µM.

For the molecule `[2H]C([2H])([2H])N(c1ccc(-c2ccc(-c3cn[nH]c3)c3cn[nH]c23)nn1)C1CCNCC1` [Compound 267], the AC50 is, setting by setting: under setting [3], more than 10 µM; under setting [4], more than 10 µM.

As to `CN(c1ccc(-c2ccc(-c3cn[nH]c3)c3cn[nH]c23)nn1)C1CCNCC1` [Compound 273], the AC50 was more than 10 µM under setting [3] and more than 10 µM under setting [4].

For `CCN(c1ccc(-c2ccc(-c3cn[nH]c3)c3cn[nH]c23)nn1)C1CCNCC1` [Compound 274], the AC50 is, setting by setting: under setting [3], more than 10 µM; under setting [4], more than 10 µM. Take `CC1(C)CC(Nc2ccc(-c3ccc(-c4cn[nH]c4)c4cn[nH]c34)nn2)CC(C)(C)N1` [Compound 275]: the AC50 is 0.1 to 1 µM under setting [3] and 1 to 10 µM under setting [4].

Values taken from patent US20230140983A1, “PYRIDAZINE DERIVATIVES FOR MODULATING NUCLEIC ACID SPLICING” (REMIX THERAPEUTICS INC., priority 2020, published 2023).
